Numbered stars: 1 amine (or outer) side, 2 acyl side, 3 side chain; on linkers, the order of the positions; unused ones are H or OH. Bridge positions count the residues as written; N and C are the ends. Square brackets hold non-standard residues; d marks the D form. Peptide text beside a SMILES is read from it. Adda = CO[C@@H](Cc1ccccc1)[C@@H](C)/C=C(C)/C=C/[C@H](N[*:1])[C@H](C)C(=O)[*:2]; dAsp(3S-Me) = C[C@H](C(=O)[*:3])[C@@H](N[*:1])C(=O)[*:2]; d(γGlu) = O=C(O)[C@@H](CCC(=O)[*:2])N[*:1]; NMeDha = C=C(NC)C(=O)O
How the values were obtained:
[1] = target: T1, Solute carrier organic anion transporter family member 2B1 (Homo sapiens, UniProt O94956); assay: (§1) TP_TRANSPORTER: uptake in Xenopus laevis oocytes; assay type: functional, cell-based; conditions: oocyte
T1 sequence (O94956 whole entry): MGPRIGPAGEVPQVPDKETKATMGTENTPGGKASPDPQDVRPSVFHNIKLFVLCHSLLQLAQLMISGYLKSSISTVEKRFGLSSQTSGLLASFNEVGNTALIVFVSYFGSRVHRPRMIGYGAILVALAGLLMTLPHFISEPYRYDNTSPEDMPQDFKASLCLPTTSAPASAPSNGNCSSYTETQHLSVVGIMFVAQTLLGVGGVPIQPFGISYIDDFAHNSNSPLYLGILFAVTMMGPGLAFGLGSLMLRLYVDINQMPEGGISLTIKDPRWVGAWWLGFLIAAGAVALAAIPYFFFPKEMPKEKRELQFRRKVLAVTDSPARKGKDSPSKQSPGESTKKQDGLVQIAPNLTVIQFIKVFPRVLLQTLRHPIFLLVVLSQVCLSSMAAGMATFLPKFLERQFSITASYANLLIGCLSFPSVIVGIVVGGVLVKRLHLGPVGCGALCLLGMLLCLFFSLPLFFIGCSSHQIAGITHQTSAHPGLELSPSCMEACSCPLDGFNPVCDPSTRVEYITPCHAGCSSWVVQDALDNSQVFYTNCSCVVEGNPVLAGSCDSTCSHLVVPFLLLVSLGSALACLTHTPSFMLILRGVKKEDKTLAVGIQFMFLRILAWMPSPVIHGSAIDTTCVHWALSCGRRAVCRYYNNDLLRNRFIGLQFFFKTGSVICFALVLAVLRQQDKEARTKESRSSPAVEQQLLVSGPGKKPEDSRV

[2] = target: T2, Solute carrier organic anion transporter family member 1A1 (Rattus norvegicus, UniProt P46720); assay: as §1; assay type: functional, cell-based; conditions: oocyte
T2 sequence (P46720 whole entry): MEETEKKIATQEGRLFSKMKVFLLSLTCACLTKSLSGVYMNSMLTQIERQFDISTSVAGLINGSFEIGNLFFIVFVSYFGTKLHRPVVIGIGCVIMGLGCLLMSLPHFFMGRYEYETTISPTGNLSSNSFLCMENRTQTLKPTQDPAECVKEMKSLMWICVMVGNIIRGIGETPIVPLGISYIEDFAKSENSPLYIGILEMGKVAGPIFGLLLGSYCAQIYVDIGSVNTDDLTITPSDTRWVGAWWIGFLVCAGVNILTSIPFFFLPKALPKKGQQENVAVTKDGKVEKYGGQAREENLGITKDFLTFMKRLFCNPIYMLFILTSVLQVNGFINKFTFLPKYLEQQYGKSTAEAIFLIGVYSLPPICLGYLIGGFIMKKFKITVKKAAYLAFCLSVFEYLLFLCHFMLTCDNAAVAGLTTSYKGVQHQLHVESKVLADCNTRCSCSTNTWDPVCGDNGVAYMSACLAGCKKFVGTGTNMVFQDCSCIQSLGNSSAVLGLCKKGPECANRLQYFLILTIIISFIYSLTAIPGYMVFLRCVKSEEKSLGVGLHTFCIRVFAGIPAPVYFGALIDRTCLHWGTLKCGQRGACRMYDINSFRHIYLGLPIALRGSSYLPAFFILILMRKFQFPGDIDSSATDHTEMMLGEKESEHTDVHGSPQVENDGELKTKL

[3] = target: T3, Solute carrier organic anion transporter family member 1B2 (Rattus norvegicus, UniProt Q9QZX8); assay: as §1; assay type: functional, cell-based; conditions: oocyte
T3 sequence (Q9QZX8 whole entry): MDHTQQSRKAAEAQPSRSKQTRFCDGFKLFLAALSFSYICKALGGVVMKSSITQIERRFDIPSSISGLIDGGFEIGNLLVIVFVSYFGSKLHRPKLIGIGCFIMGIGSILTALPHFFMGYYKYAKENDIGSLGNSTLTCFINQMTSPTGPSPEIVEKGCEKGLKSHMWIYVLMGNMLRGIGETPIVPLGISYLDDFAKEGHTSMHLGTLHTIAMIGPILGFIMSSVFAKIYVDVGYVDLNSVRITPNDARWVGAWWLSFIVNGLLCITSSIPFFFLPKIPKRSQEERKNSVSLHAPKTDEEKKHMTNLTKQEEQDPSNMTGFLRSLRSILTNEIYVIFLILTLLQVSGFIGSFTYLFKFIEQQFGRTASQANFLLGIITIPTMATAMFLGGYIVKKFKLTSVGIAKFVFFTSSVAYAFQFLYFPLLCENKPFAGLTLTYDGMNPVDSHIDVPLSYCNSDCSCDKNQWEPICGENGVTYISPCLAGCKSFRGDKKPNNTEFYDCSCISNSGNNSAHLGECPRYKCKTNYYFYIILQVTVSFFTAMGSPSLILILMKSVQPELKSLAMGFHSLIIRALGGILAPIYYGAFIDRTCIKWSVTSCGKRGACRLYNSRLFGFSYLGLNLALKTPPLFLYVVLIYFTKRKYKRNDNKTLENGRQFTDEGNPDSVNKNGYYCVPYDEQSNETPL

[4] = target: T4, Solute carrier organic anion transporter family member 1A4 (Rattus norvegicus, UniProt O35913); assay: as §1; assay type: functional, cell-based; conditions: oocyte
T4 sequence (O35913 whole entry): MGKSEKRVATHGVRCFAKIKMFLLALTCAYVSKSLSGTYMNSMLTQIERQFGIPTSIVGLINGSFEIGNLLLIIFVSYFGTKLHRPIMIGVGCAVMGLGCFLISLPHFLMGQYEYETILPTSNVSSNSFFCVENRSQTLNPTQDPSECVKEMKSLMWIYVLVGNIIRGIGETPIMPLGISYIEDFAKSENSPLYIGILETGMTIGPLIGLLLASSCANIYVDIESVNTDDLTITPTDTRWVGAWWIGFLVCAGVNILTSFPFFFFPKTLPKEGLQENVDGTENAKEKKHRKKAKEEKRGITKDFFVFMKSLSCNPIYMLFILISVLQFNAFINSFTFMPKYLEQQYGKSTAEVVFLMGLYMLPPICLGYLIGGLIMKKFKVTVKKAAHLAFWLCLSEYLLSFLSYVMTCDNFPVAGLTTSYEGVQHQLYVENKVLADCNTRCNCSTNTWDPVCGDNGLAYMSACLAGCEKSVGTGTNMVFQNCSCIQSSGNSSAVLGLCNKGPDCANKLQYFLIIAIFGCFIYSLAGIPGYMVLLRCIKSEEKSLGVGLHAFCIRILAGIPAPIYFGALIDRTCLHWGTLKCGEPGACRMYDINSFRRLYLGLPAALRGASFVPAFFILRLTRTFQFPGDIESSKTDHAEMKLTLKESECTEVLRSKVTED

[5] = target: T5, Solute carrier organic anion transporter family member 1B1 (OATP1B1) (Homo sapiens, UniProt Q9Y6L6); assay: as §1; assay type: functional, cell-based, Oocyte
T5 sequence (Q9Y6L6 whole entry): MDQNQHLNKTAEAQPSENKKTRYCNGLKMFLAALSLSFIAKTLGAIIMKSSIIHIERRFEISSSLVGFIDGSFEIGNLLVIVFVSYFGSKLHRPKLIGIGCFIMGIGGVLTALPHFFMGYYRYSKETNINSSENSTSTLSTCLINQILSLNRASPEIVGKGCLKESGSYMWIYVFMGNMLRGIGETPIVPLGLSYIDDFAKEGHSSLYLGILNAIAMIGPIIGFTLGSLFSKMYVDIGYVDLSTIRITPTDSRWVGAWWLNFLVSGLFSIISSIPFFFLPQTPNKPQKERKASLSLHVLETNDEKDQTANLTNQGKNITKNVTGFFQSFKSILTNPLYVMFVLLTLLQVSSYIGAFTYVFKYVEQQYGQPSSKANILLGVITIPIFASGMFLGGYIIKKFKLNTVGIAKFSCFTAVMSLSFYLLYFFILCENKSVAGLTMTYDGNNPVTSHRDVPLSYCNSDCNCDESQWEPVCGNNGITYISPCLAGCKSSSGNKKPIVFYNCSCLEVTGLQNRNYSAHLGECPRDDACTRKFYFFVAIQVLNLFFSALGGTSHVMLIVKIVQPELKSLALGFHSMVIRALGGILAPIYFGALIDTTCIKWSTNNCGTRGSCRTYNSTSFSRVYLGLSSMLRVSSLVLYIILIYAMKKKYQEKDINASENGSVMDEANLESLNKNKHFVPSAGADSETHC

[6] = target: T6, Solute carrier organic anion transporter family member 1A2 (OATP1A2) (Homo sapiens, UniProt P46721); assay: as §1; assay type: functional, cell-based, Oocyte
T6 sequence (P46721 whole entry): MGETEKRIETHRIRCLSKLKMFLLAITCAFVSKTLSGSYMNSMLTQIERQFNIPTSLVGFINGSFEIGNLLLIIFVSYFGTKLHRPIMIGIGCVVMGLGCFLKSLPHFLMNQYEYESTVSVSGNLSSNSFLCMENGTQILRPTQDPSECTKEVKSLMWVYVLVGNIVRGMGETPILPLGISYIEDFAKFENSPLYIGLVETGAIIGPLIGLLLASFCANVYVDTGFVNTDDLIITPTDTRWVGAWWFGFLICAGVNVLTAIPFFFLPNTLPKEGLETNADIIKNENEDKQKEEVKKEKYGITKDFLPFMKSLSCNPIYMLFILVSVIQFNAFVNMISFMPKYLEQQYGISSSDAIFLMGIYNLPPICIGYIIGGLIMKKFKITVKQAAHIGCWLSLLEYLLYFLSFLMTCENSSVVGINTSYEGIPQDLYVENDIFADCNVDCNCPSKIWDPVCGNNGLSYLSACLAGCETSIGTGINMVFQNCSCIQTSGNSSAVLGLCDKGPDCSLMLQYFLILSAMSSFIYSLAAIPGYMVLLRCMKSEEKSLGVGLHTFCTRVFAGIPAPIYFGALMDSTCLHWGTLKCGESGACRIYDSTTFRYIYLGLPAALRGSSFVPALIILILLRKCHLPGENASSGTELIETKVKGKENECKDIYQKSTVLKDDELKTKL

[7] = target: T7, Solute carrier organic anion transporter family member 1B3 (OATP1B3) (Homo sapiens, UniProt Q9NPD5); assay: as §1; assay type: functional, cell-based, Oocyte
T7 sequence (Q9NPD5 whole entry): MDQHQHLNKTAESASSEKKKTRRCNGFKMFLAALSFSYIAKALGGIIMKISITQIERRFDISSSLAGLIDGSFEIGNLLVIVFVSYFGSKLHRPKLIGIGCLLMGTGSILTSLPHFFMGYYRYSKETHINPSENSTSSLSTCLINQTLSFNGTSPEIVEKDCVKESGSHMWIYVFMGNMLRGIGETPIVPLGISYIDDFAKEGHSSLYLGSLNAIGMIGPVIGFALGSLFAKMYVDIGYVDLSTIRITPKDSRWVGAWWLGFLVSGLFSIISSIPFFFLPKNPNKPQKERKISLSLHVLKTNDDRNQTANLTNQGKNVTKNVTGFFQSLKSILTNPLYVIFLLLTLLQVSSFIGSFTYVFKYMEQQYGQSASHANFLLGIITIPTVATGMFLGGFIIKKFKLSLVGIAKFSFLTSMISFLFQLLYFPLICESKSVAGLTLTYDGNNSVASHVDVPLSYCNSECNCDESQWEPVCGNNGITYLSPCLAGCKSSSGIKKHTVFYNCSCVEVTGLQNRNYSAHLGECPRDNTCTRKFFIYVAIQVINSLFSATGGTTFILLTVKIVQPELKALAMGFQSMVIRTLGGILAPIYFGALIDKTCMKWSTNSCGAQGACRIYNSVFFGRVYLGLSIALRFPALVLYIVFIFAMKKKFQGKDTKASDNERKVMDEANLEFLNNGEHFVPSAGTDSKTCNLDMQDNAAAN

With `C=C1C(=O)N[C@H](C)C(=O)N[C@@H](CC(C)C)C(=O)N[C@@H](C(=O)O)[C@H](C)C(=O)N[C@@H](CCCNC(=N)N)C(=O)N[C@@H](/C=C/C(C)=C/[C@H](C)[C@H](Cc2ccccc2)OC)[C@H](C)C(=O)N[C@@H](C(=O)O)CCC(=O)N1C` [MICROCYSTIN-LR] (R[Adda][d(γGlu)][NMeDha][dA]L[dAsp(3S-Me)]-OH; lactam N-7) the Activity [1] was “is not a substrate [(-)]”, the Activity [2] was “is not a substrate [(-)]” and the Activity [3] was “substrate [(+)]”. For the same compound, the Activity [4] was “is not a substrate [(-)]”, the Km [5] was 12.4 µM and the Km [6] was 20 µM. The Km [7] was 12.4 µM.

— ChEMBL document CHEMBL2074479, “Organic anion transporting polypeptides expressed in liver and brain mediate uptake of microcystin” (Toxicol Appl Pharmacol, 2005)
